Where two headings read alike, the source gives them in different places.
Assay: Pharmacokinetics after single intravenous drip infusion, plasma LC-MS/MS
Type: in vivo, Philippine macaques
Details: for concentration at 0.17 hr / concentration at 0.25 hr / concentration at 0.5 hr / concentration at 0.75 hr / concentration at 1 hr: intravenous, AST-3424-D6 intravenous drip infusion 0.42 mg/kg
Experimental: AST-3424 and AST-3424-D6 (i.e. the compound of formula I) were administered to Philippine macaques by intravenous drip infusion, and blood samples were collected at different appointed times. LC-MS/MS was used to determine concentrations of the test substances in plasma of the Philippine macaques after administration, and relevant pharmacokinetic parameters were calculated.
Preparation method: 0.447 ml of AST-3424 (0.2 mg/ml) and 0.481 ml of AST-3424-D6 (0.2 mg/ml) were added into 104.272 ml of the dissolvent, respectively, and mixed for 5 minutes to obtain colorless and clarified solutions with pH 7.0.
The four male Philippine macaques were purchased from Guangxi Xiongsen Primate Development Experiment Co., Ltd. All Philippine macaques were healthy with qualified medical examination and no abnormality. Three of animals were used for the experiment, and one of them was used to prepare blank plasma.
About 0.8 ml of blood samples were collected through femoral vein and anticoagulated with heparin sodium. Appointed times of blood collection were before administration, 0.17, 0.25, 0.5, 0.75, 1, 2, and 4 hours after administration.
The blood samples were placed on ice after collection. Next, plasma samples were separated by centrifugation, and centrifugation conditions were 3500 rpm for 10 minutes at 4° C. Then, the collected plasma samples were stored at −80° C. until analysis. The plasma samples were analyzed by LC-MS/MS by an analysis department of an experimental institution. Besides, Lower limit of quantifications (LLOQ) of AST-3424 and AST-3424-D6 detection were 1 ng/ml. The accuracy of analysis results of an accompanying standard curve and a quality control samples all met the relevant requirements of biological analysis (the accuracy of the quality control samples exceeding 66.7% was between 85˜115%) in a process of the sample detection.
According to average blood concentration data of each group at each appointed time, the pharmacokinetic parameters of the compounds were respectively computed by a pharmacokinetic computing software, a non-compartmental model. In addition, the pharmacokinetic parameters were AUC0-t, AUC0-∞, MRT0-∞, Cmax, Tmax, t1/2, etc. In the case of the concentrations of the samples whose concentration being lower than a lower limit of quantification, the following schemes were used to compute the pharmacokinetic parameters. The samples sampled before reaching Cmax shall be computed as zero value, while the samples sampled after reaching Cmax shall be computed as non-quantifiable (marked as “BLQ”).
After a single intravenous infusion of the compounds AST-3424 and AST-3424-D6 was administered to the Philippine macaques, the whole blood samples of the corresponding animals were collected at the appointed times. Next, the whole blood samples were processed and biologically analyzed to obtain concentrations of the compounds in the plasma at the different appointed times. Results of the assay were listed in Table 14 below, and corresponding means of the plasma-drug concentration-time curves are shown in FIG. 3.
According to the plasma-drug concentration data of each drug group, the pharmacokinetic parameters of each compound group were computed using the non-compartmental model of the pharmacokinetic computing software. The pharmacokinetic

[1] = male, Philippine macaque, plasma, 0.42 mg/kg, individual animals 101, 102, 103, read-out: Plasma-drug concentration
[2] = male, Philippine macaque, plasma, 0.42 mg/kg, read-out: Plasma-drug concentration, mean

SMILES: [2H]C([2H])([2H])N(C(=O)c1cccc(Oc2cc([C@H](C)OP(=O)(N3CC3)N3CC3)ccc2[N+](=O)[O-])c1)C([2H])([2H])[2H] [AST-3424-D6]
- Vz (AST-3424-D6 single intravenous infusion, Table 15 heading 0.58 mg/kg (text: 0.42 mg/kg), plasma, individual animals 101, 102, 103): 0.23679 L/kg
- Integral area under the drug-time curve (AUC) compared with AST-3424, in words (Philippine macaques, FIG. 3, 0.42 mg/kg AST-3424-D6 vs 0.58 mg/kg AST-3424): smaller
- AUC(0-t) (male, Philippine macaque, cynomolgus monkey, plasma, iv, 0.42 mg/kg, AST-3424-D6 single intravenous infusion, Table 15 heading 0.58 mg/kg (text: 0.42 mg/kg), plasma, individual animals 101, 102, 103, read-out: AUC(0−t)): 286 ng·h/mL
- AUC(0-inf) (male, Philippine macaque, cynomolgus monkey, plasma, iv, 0.42 mg/kg, AST-3424-D6 single intravenous infusion, Table 15 heading 0.58 mg/kg (text: 0.42 mg/kg), plasma, individual animals 101, 102, 103, read-out: AUC(0−∞)): 334 ng·h/mL
- clearance (male, Philippine macaque, cynomolgus monkey, plasma, iv, 0.42 mg/kg, AST-3424-D6 single intravenous infusion, Table 15 heading 0.58 mg/kg (text: 0.42 mg/kg), plasma, individual animals 101, 102, 103, read-out: Cl (converted)): 20.9 mL/min/kg
- Cmax (male, Philippine macaque, cynomolgus monkey, plasma, iv, 0.42 mg/kg, AST-3424-D6 single intravenous infusion, Table 15 heading 0.58 mg/kg (text: 0.42 mg/kg), plasma, individual animals 101, 102, 103, read-out: Cmax): 485 ng/mL
- MRT last (male, Philippine macaque, cynomolgus monkey, plasma, iv, 0.42 mg/kg, AST-3424-D6 single intravenous infusion, Table 15 heading 0.58 mg/kg (text: 0.42 mg/kg), plasma, individual animals 101, 102, 103, read-out: MRT(0−t)): 9 min
- MRT inf (male, Philippine macaque, cynomolgus monkey, plasma, iv, 0.42 mg/kg, AST-3424-D6 single intravenous infusion, Table 15 heading 0.58 mg/kg (text: 0.42 mg/kg), plasma, individual animals 101, 102, 103, read-out: MRT(0−∞)): 9.6 min
- half-life (male, Philippine macaque, cynomolgus monkey, plasma, iv, 0.42 mg/kg, AST-3424-D6 single intravenous infusion, Table 15 heading 0.58 mg/kg (text: 0.42 mg/kg), plasma, individual animals 101, 102, 103, read-out: T1/2 (converted)): 7.8 min
- Vd (male, Philippine macaque, cynomolgus monkey, plasma, iv, 0.42 mg/kg, AST-3424-D6 single intravenous infusion, Table 15 heading 0.58 mg/kg (text: 0.42 mg/kg), plasma, individual animals 101, 102, 103, read-out: Vss): 0.198 L/kg
- Vd (male, Philippine macaque, cynomolgus monkey, plasma, iv, 0.42 mg/kg, AST-3424-D6 single intravenous infusion, Table 15 heading 0.58 mg/kg (text: 0.42 mg/kg), plasma, individual animals 101, 102, 103, read-out: Vz): 0.234 L/kg
- AUC(0-t) (male, Philippine macaque, cynomolgus monkey, plasma, iv, 0.42 mg/kg, AST-3424-D6 single intravenous infusion, Table 15 heading 0.58 mg/kg (text: 0.42 mg/kg), plasma, read-out: AUC(0−t), Mean): 302 ± 22.6 ng·h/mL
- AUC(0-inf) (male, Philippine macaque, cynomolgus monkey, plasma, iv, 0.42 mg/kg, AST-3424-D6 single intravenous infusion, Table 15 heading 0.58 mg/kg (text: 0.42 mg/kg), plasma, read-out: AUC(0−∞), Mean): 315 ± 27.2 ng·h/mL
- Cmax (male, Philippine macaque, cynomolgus monkey, plasma, iv, 0.42 mg/kg, AST-3424-D6 single intravenous infusion, Table 15 heading 0.58 mg/kg (text: 0.42 mg/kg), plasma, read-out: Cmax, Mean): 522 ± 46 ng/mL
- MRT last (male, Philippine macaque, cynomolgus monkey, plasma, iv, 0.42 mg/kg, AST-3424-D6 single intravenous infusion, Table 15 heading 0.58 mg/kg (text: 0.42 mg/kg), plasma, read-out: MRT(0−t), Mean): 8.4 ± 0.6 min
- MRT inf (male, Philippine macaque, cynomolgus monkey, plasma, iv, 0.42 mg/kg, AST-3424-D6 single intravenous infusion, Table 15 heading 0.58 mg/kg (text: 0.42 mg/kg), plasma, read-out: MRT(0−∞), Mean): 9 min
- half-life (male, Philippine macaque, cynomolgus monkey, plasma, iv, 0.42 mg/kg, AST-3424-D6 single intravenous infusion, Table 15 heading 0.58 mg/kg (text: 0.42 mg/kg), plasma, read-out: T1/2, Mean (converted)): 7.2 min
- Tmax (male, Philippine macaque, cynomolgus monkey, plasma, iv, 0.42 mg/kg, AST-3424-D6 single intravenous infusion, Table 15 heading 0.58 mg/kg (text: 0.42 mg/kg), plasma, read-out: Tmax, Mean): 18.6 min
- Vd (male, Philippine macaque, cynomolgus monkey, plasma, iv, 0.42 mg/kg, AST-3424-D6 single intravenous infusion, Table 15 heading 0.58 mg/kg (text: 0.42 mg/kg), plasma, read-out: Vss, Mean): 0.202 L/kg
- concentration at 0.17 hr [1]: 416 ng/mL
- concentration at 0.17 hr [2]: 490 ng/mL
- concentration at 0.25 hr [1]: 479 ng/mL
- concentration at 0.25 hr [2]: 505 ng/mL
- concentration at 0.5 hr [1]: 485 ng/mL
- concentration at 0.5 hr [2]: 502 ng/mL
- concentration at 0.75 hr [1]: 113 ng/mL
- concentration at 0.75 hr [2]: 109 ng/mL
- concentration at 1 hr [1]: 41 ng/mL
- concentration at 1 hr [2]: 33.8 ng/mL
- clearance (male, cynomolgus monkey, plasma, iv, 0.42 mg/kg, AST-3424-D6 single intravenous infusion, Table 15 heading 0.58 mg/kg (text: 0.42 mg/kg), plasma, read-out: Cl, Mean (converted)): 22.3 mL/min/kg
- Vd (male, cynomolgus monkey, plasma, iv, 0.42 mg/kg, AST-3424-D6 single intravenous infusion, Table 15 heading 0.58 mg/kg (text: 0.42 mg/kg), plasma, read-out: Vz, Mean): 0.235 L/kg

From patent publication US20220395464A1, “ORALLY ADMINISTERED SOLID DOSAGE FORM DRUG” (ASCENTAWITS PHARMACEUTICALS, LTD., priority 2019, published 2022)
